This passage reports IC50 results from patent EP3800188A1, “SUBSTITUTED PYRAZOLOPYRIMIDINES AS IRAK4 INHIBITORS” (Bayer AG, priority 2019, dated 2021).

The target of the assay is T1, human IRAK4 (Homo sapiens, UniProt Q9NWZ3).
T1 construct: GST (N); made in house; host or cells: baculovirus-infected Hi5 (BTI-TN-5B1-4) insect cells
T1 sequence (Q9NWZ3 1-460): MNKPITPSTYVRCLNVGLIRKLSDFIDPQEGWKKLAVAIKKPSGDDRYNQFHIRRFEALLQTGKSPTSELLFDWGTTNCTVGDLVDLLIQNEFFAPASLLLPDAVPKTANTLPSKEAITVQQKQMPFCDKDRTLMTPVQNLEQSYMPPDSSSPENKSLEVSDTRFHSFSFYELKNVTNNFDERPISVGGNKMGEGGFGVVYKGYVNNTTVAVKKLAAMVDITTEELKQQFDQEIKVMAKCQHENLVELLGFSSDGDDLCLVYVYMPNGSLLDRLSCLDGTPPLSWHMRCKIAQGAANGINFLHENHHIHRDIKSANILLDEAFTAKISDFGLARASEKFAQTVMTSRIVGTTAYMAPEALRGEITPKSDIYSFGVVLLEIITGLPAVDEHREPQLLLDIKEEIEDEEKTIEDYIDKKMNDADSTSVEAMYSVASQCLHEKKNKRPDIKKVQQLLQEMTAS
Put plainly: Human IRAK4 kinase activity inhibition assay (IRAK4 TR-FRET assay). The assay is classed as biochemical. The note with it: 1 mM ATP, GST-human IRAK4, average or median values. The protocol: The IRAK4-inhibitory activity of the inventive substances was measured in the IRAK4 TR-FRET assay (TR-FRET = Time Resolved Fluorescence Resonance Energy Transfer) described hereinafter.
Recombinant fusion protein from N-terminal GST (glutathione S-transferase) and human IRAK4, expressed in baculovirus-infected insect cells (Hi5, BTI-TN-5B1-4, cell line purchased from Invitrogen, catalogue No. B855-02) and purified via affinity chromatography, was used as enzyme. The substrate used for the kinase reaction was the biotinylated peptide biotin-Ahx-[…] (C-terminus in amide form) which can be purchased, for example, from Biosyntan GmbH (Berlin-Buch). For the assay, 11 different concentrations in the range from 20 µM to 0.073 nM were prepared from a 2 mM DMSO solution of the test substance. 50 nl of the respective 100fold concentrated test compound solutions in DMSO were pipetted into a black low-volume 384-well microtitre plate or a black 1536-well microtiter plate (both Greiner Bio-One, Frickenhausen, Germany), 2 µl of a solution of IRAK4 in assay buffer [50 mM HEPES pH 7.5, 5mM MgCl2, 1.0 mM dithiothreitol, 30 µM activated sodium orthovanadate, 0.1% (w/v) of bovine gamma-globulin (BGG) 0.04% (v/v) nonidet-P40 (Sigma)] were added and the mixture was incubated for 15 min to allow prebinding of the substances to the enzyme prior to the kinase reaction. […] The concentration of the IRAK4 was adjusted to the respective activity of the enzyme and set such that the assay was carried out in the linear range. Typical concentrations were in the order of about 0.2 nM. The reaction was stopped by addition of 5 µl of a solution of TR-FRET detection reagents [0.1 µM streptavidin-XL665 (Cisbio Bioassays; France, catalogue No. 610SAXLG)] and 1.5 nM anti-phosphoserine antibody [Merck Millipore, "STK Antibody", catalogue No. 35-002] and 0.6 nM LANCE EU-W1024-labelled anti-mouse-IgG antibody (Perkin-Elmer, product No. AD0077; alternatively, it is possible to use a terbium cryptate-labelled anti-mouse-IgG antibody from Cisbio Bioassays) in aqueous EDTA solution (100 mM EDTA, 0.4 % [w/v] bovine serum albumin [BSA] in 25 mM HEPES pH 7.5). The resulting mixture was incubated at 22°C for 1 h to allow formation of a complex of the biotinylated phosphorylated substrate and the detection reagents. The amount of the phosphorylated substrate was then evaluated by measuring the resonance energy transfer from europium chelate-labelled anti-mouse-IgG antibody to streptavidin-XL665. To this end, the fluorescence emissions at 620 nm and 665 nm were measured after excitation at 350 nm in a TR-FRET measuring instrument, for example a Rubystar (BMG Labtechnologies, Offenburg, Germany) or a Viewlux (Perkin-Elmer). The ratio of the emissions at 665 nm and 622 nm was taken as a measure of the amount of phosphorylated substrate. The data were normalized (enzyme reaction without test substance = 0% inhibition; all other assay components but no enzyme = 100% inhibition).
One may read the IC50 as the concentration that gives 50% inhibition. For `CS(=O)(=O)N1CC(Nc2nc(N3C[C@H](O)[C@@H](F)C3)c3cnn(-c4cccc(C(F)F)c4)c3n2)C1` [II-22, (3S,4S)-1-(1-[3-(difluoromethyl)phenyl]-6-{[1-(methylsulfonyl)azetidin-3-yl]amino}-1H-pyrazolo[3,4-d]pyrimidin-4-yl)-4-fluoropyrrolidin-3-ol], 45.3 nM corresponded to half-maximal inhibition (IC50).

Turning to `CCS(=O)(=O)[C@H]1C[C@H](Nc2nc(N3C[C@H](O)[C@@H](F)C3)c3cnn(-c4cccc(C(F)(F)F)c4)c3n2)C1` [Example I-95, (3S,4S)-1-(6-{[(1r,3S)-3-(ethylsulfonyl)cyclobutyl]amino}-1-[3-(trifluoromethyl)phenyl]-1H-pyrazolo[3,4-d]pyrimidin-4-yl)-4-fluoropyrrolidin-3-ol], it took 25 nM to reach half-maximal inhibition (IC50). This IC50 lies about 1.8-fold lower than the previous one.

As to `CCC1(O)CN(c2nc(N[C@@H]3CCOC3)nc3c2cnn3-c2cccc(S(C)(=O)=O)c2)C1` [Example V-2, 3-ethyl-1-{1-[3-(methylsulfonyl)phenyl]-6-[(3R)-tetrahydrofuran-3-ylamino]-1H-pyrazolo[3,4-d]pyrimidin-4-yl}azetidin-3-ol], the IC50 was 179 nM.

As for `CC(C)(O)CC1CN(c2nc(N[C@H]3C[C@@]4(CCN4)C3)nc3c2cnn3-c2cccc(C(F)F)c2)C1` [II-36, 1-(1-{6-[(4r,6s)-1-azaspiro[3.3]heptan-6-ylamino]-1-[3-(difluoromethyl)phenyl]-1H-pyrazolo[3,4-d]pyrimidin-4-yl}azetidin-3-yl)-2-methylpropan-2-ol], the IC50 came out at 2.76 nM.

With `CC(C)(O)C1CCN(c2nc(N[C@H]3C[C@@](C)(C(=O)O)C3)nc3c2cnn3-c2cccc(C(F)(F)F)c2)CC1` [Example I-66, cis-3-({4-[4-(2-hydroxypropan-2-yl)piperidin-1-yl]-1-[3-(trifluoromethyl)phenyl]-1H-pyrazolo[3,4-d]pyrimidin-6-yl}amino)-1-methylcyclobutanecarboxylic acid], inhibition was half-maximal at 138 nM (IC50).

On to `CS(=O)(=O)[C@H]1C[C@H](Nc2nc(N3CC(F)C3)c3cnn(-c4cccc(C(F)(F)F)c4)c3n2)C1` [Example I-99, 4-(3-fluoroazetidin-1-yl)-N-[trans-3-(methylsulfonyl)cyclobutyl]-1-[3-(trifluoromethyl)-phenyl]-1H-pyrazolo[3,4-d]pyrimidin-6-amine], for which half-maximal inhibition (IC50) required 16.2 nM.

`O[C@@H]1CCN(c2nc(N[C@H]3C[C@H](O)C3)nc3c2cnn3-c2cccc(C(F)F)c2)C1` [II-33, (3R)-1-(1-[3-(difluoromethyl)phenyl]-6-{[(1r,3R)-3-hydroxycyclobutyl]amino}-1H-pyrazolo[3,4-d]pyrimidin-4-yl)pyrrolidin-3-ol] gave a half-maximal inhibitory concentration (IC50) of 16.5 nM. The IC50 values of the last two compounds are within 1.5-fold of each other.

Consider `CCC1(O)CN(c2nc(N[C@H]3CNC(=O)C3)nc3c2cnn3-c2cccc(C(F)(F)F)c2)C1` [Example I-3-2, (4R)-4-({4-(3-ethyl-3-hydroxyazetidin-1-yl)-1-[3-(trifluoromethyl)phenyl]-1H-pyrazolo[3,4-d]pyrimidin-6-yl}amino)pyrrolidin-2-one], for which half-maximal inhibition (IC50) required 167 nM. Compared with the last compound, the IC50 is about 10-fold higher.

As for `CCS(=O)(=O)N1CC(Nc2nc(N3CC(N4CCOCC4)C3)c3cnn(-c4cccc(C(F)F)c4)c3n2)C1` [II-32, 1-[3-(difluoromethyl)phenyl]-N-[1-(ethylsulfonyl)azetidin-3-yl]-4-[3-(morpholin-4-yl)azetidin-1-yl]-1H-pyrazolo[3,4-d]pyrimidin-6-amine], half-maximal inhibition (IC50) was put at 56.7 nM.

As to `CC(C)(O)C1CCN(c2nc(N[C@@H]3CCCNC3=O)nc3c2cnn3-c2cccc(C(F)(F)F)c2)CC1` [Example I-11-2, (3R)-3-({4-[4-(2-hydroxypropan-2-yl)piperidin-1-yl]-1-[3-(trifluoromethyl)phenyl]-1H-pyrazolo[3,4-d]pyrimidin-6-yl}amino)piperidin-2-one], the IC50 turned out to be 151 nM.

Compound `O[C@H]1COC[C@@H]1Nc1nc(N2CC(N3CCOCC3)C2)c2cnn(-c3cccc(C(F)(F)F)c3)c2n1` [Example I-69, (3R,4S)-4-({4-[3-(morpholin-4-yl)azetidin-1-yl]-1-[3-(trifluoromethyl)phenyl]-1H-pyrazolo[3,4-d]pyrimidin-6-yl}amino)tetrahydrofuran-3-ol] gave a half-maximal inhibitory concentration (IC50) of 26.2 nM.

The compound `O=C1C[C@@H](Nc2nc(N3C[C@H](O)[C@@H](O)C3)c3cnn(-c4cccc(C(F)(F)F)c4)c3n2)CN1` [Example I-20-1, (4R)-4-({4-[(3S,4S)-3,4-dihydroxypyrrolidin-1-yl]-1-[3-(trifluoromethyl)phenyl]-1H-pyrazolo[3,4-d]pyrimidin-6-yl}amino)pyrrolidin-2-one] gave a 50% inhibitory concentration (IC50) of 278 nM.

In the case of `O[C@@H]1CC[C@@H]1Nc1nc(N2CC(N3CCOCC3)C2)c2cnn(-c3cccc(C(F)(F)F)c3)c2n1` (relative stereo) [Example I-73, rel-(1R,2S)-2-({4-[3-(morpholin-4-yl)azetidin-1-yl]-1-[3-(trifluoromethyl)phenyl]-1H-pyrazolo[3,4-d]pyrimidin-6-yl}amino)cyclobutanol], half-maximal inhibition (IC50) was put at 28 nM.

Consider `CC(C)(O)C1CCN(c2nc(N[C@H]3CNC(=O)C3)nc3c2cnn3-c2cccc(C(F)(F)F)c2)CC1` [Example I-2-2, (4R)-4-({4-[4-(2-hydroxypropan-2-yl)piperidin-1-yl]-1-[3-(trifluoromethyl)phenyl]-1H-pyrazolo[3,4-d]pyrimidin-6-yl}amino)pyrrolidin-2-one], for which it took 31.4 nM to reach half-maximal inhibition (IC50).

In turn, `CC(C)(O)C1CCN(c2nc(NC3CCS(=O)(=O)C3)nc3c2cnn3-c2cccc(C(F)(F)F)c2)CC1` (single isomer, unassigned; (-)) [Example I-4-3, (-)-2-(1-{6-[(1,1-dioxidotetrahydrothiophen-3-yl)amino]-1-[3-(trifluoromethyl)phenyl]-1H-pyrazolo[3,4-d]pyrimidin-4-yl}piperidin-4-yl)propan-2-ol] yielded a concentration for half-maximal inhibition (IC50) of 68.5 nM.

`O=C1C[C@H](Nc2nc(N3CCOCC3)c3cnn(-c4cccc(C(F)(F)F)c4)c3n2)CN1` [Example I-28, (4S)-4-({4-(morpholin-4-yl)-1-[3-(trifluoromethyl)phenyl]-1H-pyrazolo[3,4-d]pyrimidin-6-yl}amino)pyrrolidin-2-one]: half-maximal inhibition (IC50) was put at 23.9 nM.

`CS(=O)(=O)[C@H]1C[C@H](Nc2nc(N3C[C@@H](O)[C@H](F)C3)c3cnn(-c4cccc(C(F)F)c4)c3n2)C1` (relative stereo) [II-16-1, rel-(3R,4R)-1-(1-[3-(difluoromethyl)phenyl]-6-{[trans-3-(methylsulfonyl)cyclobutyl]-amino)-1H-pyrazolo[3,4-d]pyrimidin-4-yl)-4-fluoropyrrolidin-3-ol] came in with an IC50 of 1.36 nM. Compared with the last compound, the IC50 is about 18-fold lower.

Turning to `CCC1(O)CN(c2nc(NC3CCS(=O)(=O)CC3)nc3c2cnn3-c2cccc(C(F)(F)F)c2)C1` [Example I-19, 1-{6-[(1,1-dioxidotetrahydro-2H-thiopyran-4-yl)amino]-1-[3-(trifluoromethyl)phenyl]-1H-pyrazolo[3,4-d]pyrimidin-4-yl}-3-ethlazetidin-3-ol], the concentration for half-maximal inhibition (IC50) came out at 27 nM.

`NC1CCN(c2nc(NC3CCS(=O)(=O)CC3)nc3c2cnn3-c2cccc(C(F)(F)F)c2)CC1(F)F` (racemic) [Example I-105, 4-[(4RS)-4-amino-3,3-difluoropiperidin-1-yl]-N-(1,1-dioxidotetrahydro-2H-thiopyran-4-yl)-1-[3-(trifluoromethyl)phenyl]-1H-pyrazolo[3,4-d]pyrimidin-6-amine] showed an IC50 of 280 nM.
